Data on one compound can be found in patent US8815919B2, “Oxadiazole derivatives” (Merck Serono SA, priority 2009, dated 2014).

Structures are written as SMILES. Counter-ions that a name gives are not always drawn. Like-named read-outs stand apart in the source and are kept apart here.

The target of data set [1] is T1, S1P3 (Homo sapiens, UniProt Q99500). Kind of data set: 35S-GTPγS binding on membranes of CHO cells expressing S1P3. In kind it is biochemical. Particulars: read-out: S1P3/GTPG EC50. The protocol: (§1) Membranes were prepared from CHO cells expressing S1P1 or S1P3 for use in ligand and […] binding studies. Cells were suspended in 50 mM TRIS, pH 7.4, 2 mM EDTA, 250 mM Sucrose (buffer A) and 1× Complete protease inhibitor cocktail (Roche), and disrupted at 4° C. by N2 decompression using a cell disruption bomb (Parr Instrument). Following centrifugation at 1000 RPM for 10 min at 4° C., the supernatant was diluted (2×) in buffer A and centrifuged again at 19000 RPM for 75 min at 4° C. The pellet was then suspended in 10 mM HEPES, pH 7.4, 1 mM EDTA, 250 mM Sucrose (Buffer B), and 1× Complete EDTA-free protease inhibitor cocktail and homogenized using a potter. Membranes were flash frozen in liquid N2 and stored at −80° C.
(§2) Membranes (1 to 10 μg protein) prepared as described above, were incubated in 96-well Scintiplates (PerkinElmer) with test compounds diluted in DMSO, in 140 μl of 20 mM HEPES, pH 7.4, 10 mM MgCl2, 2 μg/well Saponin, 0.2% fatty acid free BSA (Assay buffer), 125 mM NaCl and 1.5 μM GDP. The assay was initiated with the addition of 60 μl of 1.5 nM [35S]-GTPγS (1100 Ci/mmol; GE Healthcare) in assay buffer. After 60 min incubation at 30° C. on a shaker, plates were centrifuged for 10 min at 2000 RPM. Supernatant was discarded and membrane bound radioactivity was measured on a PerkinElmer 1450 MicroBeta counter. Triplicate samples were averaged and expressed as % response relative to S1P activation in absence of compound (n=2).
(§3) The “potency” or the “activity” of the compounds is determined by the EC50 values as evaluated in the above described 35S-GTPγS binding assay.
For orientation: GTPγS is a poorly hydrolysed GTP analogue; its binding reports G protein activation.

The target of data set [2] is T1, S1P3. Put plainly: Receptor binding assay, [33P]sphingosine 1-phosphate competition, S1P3 membranes, WGA SPA beads. The gist of the method: (§4)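 Competition of [33P]S1P ([…]) on CHO cell membranes with WGA SPA beads in 50 mM HEPES pH 7.5, 5 mM MgCl2, 100 mM NaCl, 0.4% fatty acid-free BSA; 60 min at RT. Triplicates normalised to total binding and nonspecific binding (1000-fold excess unlabeled S1P).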

For data set [3], the target named is T2, S1P1 (Homo sapiens, UniProt P21453). Kind of data set: S1P1 internalization assay in S1P1-U2OS cells (S1P1-EGFP), cell imaging. It counts as cell-based. Also on record: host or cells: U2OS (human bone osteosarcoma epithelial cells), CMV promoter, geneticin selection. The settings on record: 1 hour incubation. In a few lines: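 U2OS cells stably expressing human S1P1-EGFP, plated overnight in 1% FCS medium, then serum-starved 2 h in 0.1% fatty-acid-free BSA before 1 h compound exposure at 37 °C. After PFA fixation and Hoechst staining, internalization imaged as EGFP spot count per nucleus.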
Target sequence in this assay (P21453 whole entry): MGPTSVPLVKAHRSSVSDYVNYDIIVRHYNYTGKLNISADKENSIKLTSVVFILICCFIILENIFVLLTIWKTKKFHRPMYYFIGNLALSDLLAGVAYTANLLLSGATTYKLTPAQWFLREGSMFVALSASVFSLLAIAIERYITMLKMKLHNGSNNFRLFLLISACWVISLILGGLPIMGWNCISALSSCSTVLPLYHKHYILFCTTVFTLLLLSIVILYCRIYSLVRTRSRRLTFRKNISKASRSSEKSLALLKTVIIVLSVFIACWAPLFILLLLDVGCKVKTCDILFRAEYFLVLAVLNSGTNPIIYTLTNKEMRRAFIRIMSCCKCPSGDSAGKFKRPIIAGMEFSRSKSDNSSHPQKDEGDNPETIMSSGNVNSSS

In data set [4] the target is T2, S1P1. Kind of data set: 35S-GTPγS binding on membranes of CHO cells expressing S1P1. It counts as biochemical. Particulars: read-out: S1P1/GTPG EC50. The procedure: as §1, §2, §3
Target sequence in this assay (P21453 whole entry, species assumed): as the sequence (P21453 whole entry) above
For another data set, the system named is lymphocytes. Kind of data set: Model of S1P agonists-induced lymphopenia in mice. It counts as in vivo. The settings on record: oral. The protocol:
(§5) Female C57BL/6 mice (Elevage Janvier) (8 week old) receive S1P agonists by oral route. Blood is sampled in heparinized (100 IU/kg, ip) mice by intracardiac or retroorbital puncture under isoflurane anesthesia 2 to 120 hrs after drug treatment. The white blood cells (lymphocytes and neutrophils) are counted using a Beckman/Coulter counter. The quality of blood sampling is assessed by counting erythocytes and platelets.

Data set [5] addresses T2, S1P1. Put plainly: Receptor binding assay, [33P]sphingosine 1-phosphate competition, S1P1 membranes, WGA SPA beads. The gist of the method: as §4
Target sequence in this assay (P21453 whole entry, species assumed): as the sequence (P21453 whole entry) above
Data set [6] in a line: Pharmacokinetics in mouse (PK parameters from lymphopenia study). Particulars: 30 mpk. It counts as in vivo. The protocol: as §5
Pharmacokinetics Data: • The pharmacoinetic properties of compound of example 20, N-(3-fluoro-5-{5-[2-(methoxymethyl)-2′-methylbiphenyl-4-yl]-1,2,4-oxadiazol-3-yl}benzyl)-N-methylglycine, hydrochloride salt, are the following: […]

Where [7] appears, read: female, C57BL/6, plasma, po, 30 mg/kg.

T1 sequence (Q99500 whole entry, species assumed): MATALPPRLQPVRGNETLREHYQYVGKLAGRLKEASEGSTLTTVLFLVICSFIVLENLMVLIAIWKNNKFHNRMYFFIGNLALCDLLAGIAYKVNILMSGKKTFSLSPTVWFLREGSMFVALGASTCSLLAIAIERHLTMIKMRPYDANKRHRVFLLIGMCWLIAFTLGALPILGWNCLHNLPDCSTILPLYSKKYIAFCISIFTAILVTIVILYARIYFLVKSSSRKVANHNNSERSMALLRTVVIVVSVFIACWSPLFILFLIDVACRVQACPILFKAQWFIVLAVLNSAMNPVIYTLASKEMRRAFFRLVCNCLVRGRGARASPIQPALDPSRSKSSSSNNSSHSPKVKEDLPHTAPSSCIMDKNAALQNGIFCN

`COCc1cc(-c2nc(-c3cc(F)cc(CN(C)CC(=O)O)c3)no2)ccc1-c1ccccc1C` [Example 20, N-(3-fluoro-5-{5-[2-(methoxymethyl)-2′-methylbiphenyl-4-yl]-1,2,4-oxadiazol-3-yl}benzyl)-N-methylglycine, hydrochloride salt]: the EC50 at S1P3 [1] turned out to be 59.9 nM; at S1P1 [3], 5.33 nM; on S1P1 [4], 0.717 nM. Moreover, the Ki on S1P3 [2] (96 well-plate, read-out: S1P3 binding Ki (M) (96 well-plate)) came to 1.73e-08 M; on S1P3 [2] (384 well-plate, read-out: S1P3 binding Ki (M) (384 well-plate)), 7.78e-08 M; on S1P1 [5] (96 well-plate, read-out: S1P1 binding Ki (M) (96 well-plate)), 1.69e-10 M; on S1P1 [5] (384 well-plate, read-out: S1P1 binding Ki (M) (384 well-plate)) it was 1.33e-09 M. Also, the “% Lymphopenia in mouse at 48 h” value in the data set with lymphocytes came out at 72 ± 5%. For the same compound, the “Plasma AUD?” value in data set [6] was 202.751 µg·h/mL. Also, the “Lymph node/plasma ratio: 24 h” value in data set [6] (24 h) is given as 0.8. In data set [6] (48 h), the “Lymph node/plasma ratio: 48 h” value is 0.7. The Kp in data set [6] (female, C57BL/6, brain, oral, 30 mg/kg, ratio of AUC, read-out: Brain/Plasma-Ratio: AUCZ (h*ng/ml)) turned out to be 0.15. This compound had a peak concentration (Cmax) in data set [6] (setting [7]) of 10300 ng/mL. In data set [6] (setting [7]), the Tmax was 4 h. This compound had a half-life in data set [6] (setting [7]) of 5.3 h. The CL/F in data set [6] (female, C57BL/6, plasma, po, 30 mg/kg, read-out: Cl/F (L/kg/h) (Fz%)) was 0.15 L/kg/h.

A word on the Ki: it is the equilibrium dissociation constant of an inhibitor or competing ligand from its target. Usually Cmax stands for the peak of the concentration-time curve. For orientation: Tmax means the time from dosing to the highest level. Usually half-life stands for how long it takes for the measured level to halve.
